The subject of data set [1] is MRC-5 non-tumorigenic lung fibroblast cells. As to the kind of experiment: in vitro. An excerpt:
(§1) (a) Dulbecco's Modified Eagle Medium (DMEM), Dulbecco's phosphate buffered saline (DPBS), fetal bovine serum (FBS) and 0.25% trypsin/EDTA solutions were purchased from Cellgro (Manassas, Va.). Penicillin-streptomycin solutions were purchased from Mediatech (Manassas, Va.). (b) HeLa (CCL-2TM) cells, A549, A2870, A2870/CP70, MCF-7, PC-3, and MRC-5 cells were purchased from American Type Culture Collection (ATCC, Manassas, Va., USA). (c) HCT116 cells were kindly donated by Laura Trudel (MIT). HeLa, A549, MCF-7, and MRC-5 cells were cultured using DMEM supplemented with 10% FBS and 1% penicillin-streptomycin. A2870, A2870/CP70, and PC-3 cells were cultured in RPMI supplemented with 10% FBS and 1% penicillin-streptomycin. HCT116 cells were cultured in McCoy's supplemented with 10% FBS and 1% penicillin-streptomycin. All cell-culture experiments were performed in the aforementioned media in an incubator operating at 37° C. and in the presence of a humidified atmosphere containing 5.0% CO2. Cells were harvested using a 0.25% trypsin/EDTA solution.
(§2) The cytotoxicity of the compounds was assessed by means of the MTT assay (MTT=3-(4,5-dimethyl-2-thiazolyl)-2,5-diphenyl-2H-tetrazolium bromide). Typically, on day one, ˜1×10^3 cells were seeded into 96-well plates in 100 μL media per well. The last row of the plate was left empty as a control for background absorption. The cells were allowed to grow for 24 h in the incubator at 37° C. On day two, a series of drug dilutions in growth media were prepared immediately prior to cell treatment. The media in the wells of the 96 plates were replaced with 100 μL of growth media containing appropriate drug concentrations. The cells were treated for 48 h at 37° C. in the incubator. On day four, a stock solution of MTT (5 mg/mL in PBS buffer) was diluted with media so that, when 100 μL of the media was added to each well, 10 μL of MTT stock was applied. The cells were incubated for 2 h and then all the media was replaced with 100 μL of DMSO to dissolve the purple MTT-formazan crystals. The optical density for each well at 550 nm was measured with a microplate reader.

The test system of another data set is PC-3 cells. As to the kind of experiment: MTT cytotoxicity assay, PC-3.
Source text: as §1
as §2, with “The cells were incubated for 2 h and then all the media was replaced with 100 μL of DMSO to dissolve the purple MTT-formazan crystals.” left out
(Tetrazolium dyes change colour on reduction, which living cells bring about.)

In another data set the test system is HCT116 cells. As to the kind of experiment: MTT cytotoxicity assay, HCT116.
Source text: as §1
as §2, with “The cells were incubated for 2 h and then all the media was replaced with 100 μL of DMSO to dissolve the purple MTT-formazan crystals.” left out

The next data set concerns HeLa cells. As to the kind of experiment: MTT cytotoxicity assay, HeLa.
Source text: as §1
(§3) The cytotoxicity of the compounds was assessed by means of the MTT assay (MTT=3-(4,5-dimethyl-2-thiazolyl)-2,5-diphenyl-2H-tetrazolium bromide). Typically, on day one, ˜1×10^3 cells were seeded into 96-well plates in 100 μL media per well. […] The optical density for each well at 550 nm was measured with a microplate reader.

The next data set has as its system MCF-7 cells. In words: MTT cytotoxicity assay, MCF-7.
Source text: as §1
as §2, with “The cells were incubated for 2 h and then all the media was replaced with 100 μL of DMSO to dissolve the purple MTT-formazan crystals.” left out

The target of a further data set is T1, Bcl-xL-Bax interactions (Homo sapiens, UniProt Q07817).
T1 construct: endogenous in cells; host or cells: A549
As to the kind of experiment: Co-immunoprecipitation of Bcl-xL, probed for Bax. Conditions: A549 cells, respective IC50 values, 48 h. Format: cell-based. As to the method:
(§4) α-TOS is known to disrupt Bcl-xL-Bax interactions, activate Bax, and thus mediate mitochondrial centered apoptotic cell death. Co-immunoprecipitation studies were carried out to determine whether the Pt(IV)-α-TOS conjugates could behave in a similar manner. […] Additional immunoblotting studies were carried to determine the effect of Pt(IV)(α-TOS)(OEt) treatment on transcription. […] Overall Pt(IV)(α-TOS)(OEt) was able to (1) downregulate Bcl-xL expression and (2) inhibit the interaction of Bcl-xL with Bax, a prerequisite for mitochondrial dysfunction. The former is inherent to cisplatin but not α-TOS, and the latter was inherent to α-TOS but not cisplatin.
A549 cells (5×10^5 cells) were incubated with test compound for 48 h at 37° C. […] The resultant cell lysate was treated with protein A-agarose bead slurry (50 μL) and centrifuged to remove proteins that bind non-specifically. Anti Bcl-XL antibody (Cell Signalling Technology) was added to the lysate and incubated for 2 h at room temperature. Protein A-agarose bead slurry (50 μL) was added and the mixture was incubated at 4° C. overnight. Centrifugation allowed separation of the immunocomplex, which was washed with cold RIPA buffer (3×500 μL). The immunocomplex was then suspended in SDS-PAGE loading buffer (50 μL) and incubated at 95° C. for 10 min. The solution containing the immunocomplex was isolated by centrifugation and then analysed for Bax content using the immunoblotting analysis protocol described above.

The test system of data set [2] is A2780/CP70 cells (CisPt resistant). In words: MTT cytotoxicity assay, A2780/CP70.
Source text: as §1, §3

The test system of data set [3] is A2780 ovarian carcinoma cells. As to the kind of experiment: MTT cytotoxicity assay, A2780.
Source text: as §1, §3

For data set [4], the system named is A549 cells. In words: MTT cytotoxicity assay, A549.
Source text: as §1, §3

Data set [5] concerns A2780 ovarian cancer cells. In words: PI-annexin-V dual staining apoptosis assay. The class given is cell-based. The following applies: 10 μM for 48 hours.
The subject of a further data set is Bcl-xL. In words: Immunoblotting analysis of Bcl-xL expression. Format: cell-based. Conditions: A549 cells. As to the method: as §4
A549 cells (5×10^5 cells) were incubated with test compound for 48 h at 37° C. Cells were washed with PBS, scraped into SDS-PAGE loading buffer (64 mM Tris-HCl (pH6.8)/9.6% glycerol/2% SDS/5% β-mercaptoethanol/0.01% Bromophenol Blue) and incubated at 95° C. for 10 min. Whole cell lysates were resolved by 4-20% sodium dodecylsulphate polyacylamide gel electrophoresis (SDS-PAGE; 200 V for 1 h) followed by electro transfer to polyvinylidene difluoride membrane, PVDF (350 mA for 1 h). Membranes were blocked in 5% (w/v) non-fat milk in PBST (PBS/0.1% Tween 20) and incubated with the appropriate primary antibodies (Cell Signalling Technology and Santa Cruz). After incubation with horseradish peroxidase-conjugated secondary antibodies (Cell Signalling Technology), immune complexes were detected with the ECL detection reagent (BioRad) and analysed using an Alpha Innotech ChemiImager™ 5500 fitted with a chemiluminescence filter.
For orientation: Immunoblotting shows a protein as a band on a membrane.

The subject of the next data set is all cell lines. As to the kind of experiment: MTT cytotoxicity assay, across the cell lines. Format: cell-based. Conditions: all cell lines; MTT; read-out: IC50 against all cell lines.
Source text: as §1, §3

A further data set in a line: in vitro. Conditions: human.
Source text: as §1, §2

The test system of data set [6] is A549 cells. As to the kind of experiment: JC-1 mitochondrial membrane potential assay. The class given is cell-based. The following applies: cisplatin or Pt(IV)(α-TOS)(OEt) at 20 μM, 4 hours. As to the method: To investigate the effect of Pt(IV)(α-TOS)(OEt) on mitochondria, changes in the mitochondrial membrane potential were assessed by the JC-1 assay. JC-1 (5,5′,6,6′-tetrachloro-1,1′3,3′-tetraethylbenzimidazolylcarbocyanine iodide) is a positively charged lipophilic dye, which accumulates in the mitochondria of healthy cells as red-emitting aggregates. When the mitochondrial membrane is compromised, JC-1 de-aggregates into monomeric forms that emit green fluorescence. […] These findings were confirmed using flow cytometry. A large population of untreated and Pt(IV)(α-TOS)(OEt)-treated A549 cells were examined.
In order to monitor the cell cycle, flow cytometry studies were carried out. A549 cells were incubated with and without the test compounds for 24 and 48 h at 37° C. Cells were harvested from adherent cultures by trypsinization and combined with all detached cells from the incubation medium to assess total cell viability. Following centrifugation at 1000 rpm for 5 min, cells were washed with PBS and then fixed with 70% ethanol in PBS. Fixed cells were collected by centrifugation at 2500 rpm for 3 min, washed with PBS and centrifuged as before. Cellular pellets were re-suspended in 50 μg/mL propidium iodide (Sigma) in PBS for nucleic acids staining and treated with 100 μg/mL RNaseA (Sigma). DNA content was measured on a FACSCalibur-HTS flow cytometer (BD Biosciences) using laser excitation at 488 nm and 20,000 events per sample were acquired. Cell cycle profiles were analysed using the ModFit software. For the apoptosis experiments, the Annexin V-FITC Early Apoptosis Detection Kit (Cell Signaling Technology) was used. […] The samples were kept on ice prior to being read on the FACSCalibur-HTS flow cytometer (BD Biosciences) (20,000 events per sample were acquired). Cell populations were analysed using the FlowJo software (Tree Star). […] The cells were incubated for 30 min, harvested, and analysed by using the FACSCalibur-HTS flow cytometer (BD Biosciences) (20,000 events per sample were acquired). […] Cell populations were analysed using the FlowJo software (Tree Star).

Experimental findings from US9133225B2, “Dual targeting anticancer agents” (priority 2013, dated 2015) are described below.

For orientation: IC50 means the concentration that inhibits the measured activity by half.

T1 sequence (Q07817 whole entry): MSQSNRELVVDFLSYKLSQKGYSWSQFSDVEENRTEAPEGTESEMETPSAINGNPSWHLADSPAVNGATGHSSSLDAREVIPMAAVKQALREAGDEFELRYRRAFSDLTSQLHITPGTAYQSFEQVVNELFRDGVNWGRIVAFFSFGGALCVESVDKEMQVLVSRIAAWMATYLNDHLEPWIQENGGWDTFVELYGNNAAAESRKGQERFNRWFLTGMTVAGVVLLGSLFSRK

As to `Cc1c(C)c2c(c(C)c1OC(=O)CCC(=O)O)CC[C@@](C)(CCC[C@H](C)CCC[C@H](C)CCCC(C)C)O2` [α-TOS, α-tocopherol succinate, reference compound], the half-inhibitory concentration (IC50) stood at 28.5 µM in [1]; 37 µM with PC-3 cells; 31.2 µM with HCT116 cells; 25.1 µM with HeLa cells; 40.5 µM with MCF-7 cells; 21.7 µM in [2]. In addition, the IC50 in data set [3] was determined as 13.8 µM; in the data set with A549 cells [4], 26.9 µM. The “Bcl-xL-Bax interaction (Bax associated to the Bcl-xL immunoprecipitate)” value (from here on “Bcl-xL-Bax interaction”) on Bcl-xL-Bax interactions was “markedly lower than the untreated control”.
With `N.N.[Cl][Pt][Cl]` [cisplatin, reference compound], the “Bcl-xL-Bax interaction” value on Bcl-xL-Bax interactions is recorded as “less affected”. For the same compound, in [5], the “cells displaying apoptotic properties” value was determined as 10%. In the data set on Bcl-xL, the Bcl-xL expression entry is “A similar trend was observed”.
For `CC(=O)[O][Pt]([NH2])([NH2])([Cl])([Cl])[O]C(C)=O` [Pt(IV)(OAc)2], the IC50 (in data set [1]; in the data set on PC-3 cells; in the data set with HCT116 cells; with all cell lines; in the data set with MCF-7 cells) was more than 100 µM in each case. Moreover, the “Bcl-xL-Bax interaction” value at Bcl-xL-Bax interactions is reported as “less affected”. Also, the Bcl-xL expression result with Bcl-xL is listed as “A similar trend was observed”.
The compound `Cc1c(C)c2c(c(C)c1OC(=O)CCC(=O)[O][Pt]([NH2])([NH2])([Cl])([Cl])[O]C(=O)CCC(=O)Oc1c(C)c(C)c3c(c1C)CCC(C)(CCCC(C)CCCC(C)CCCC(C)C)O3)CCC(C)(CCCC(C)CCCC(C)CCCC(C)C)O2` (stereo not drawn) [Pt(IV)(α-TOS)2] yielded a concentration for half-maximal inhibition (IC50) at 48 h in “in vitro” of 80.5 µM. The “Bcl-xL-Bax interaction” value at Bcl-xL-Bax interactions is “less affected”. The Bcl-xL expression entry with Bcl-xL is given as “A similar trend was observed”.
As to `N#CC(C#N)=NNc1cccc(Cl)c1` [CCCP, carbonyl cyanide m-chlorophenyl hydrazone, reference compound], the “JC-1 fluorescence (mitochondrial membrane disruption), microscopy” value in the data set on A549 cells [6] is “increased green fluorescence and diminished red fluorescence”.
